{"source": "patent US6680025B2", "about": "“Device and method for photoactivation” (Cerus Corporation, priority 1989, dated 2004)", "type_in_all_cases": "biochemical", "key": {"HIV 115-mer [1]": {"test_system": "HIV 115-mer", "assay": "Effect of unirradiated isopsoralen on PCR", "settings": "for Counts (CPM) of PCR product: 30 cycles, 0 μg/ml gave 42200", "protocol": "To systematically evaluate the effect of the presence of increasing concentrations of isopsoralen on PCR, AMDMIP (0, 100, 200, 400 μg/ml) was added to 107 copies of HIV 115-mer as template. PCR was then carried out for 30 cycles in the presence of α-^32P-dCTP. The PCR product was run on denaturing polyacrylamide gel and autoradiographed. The bands were thereafter cut and counted."}, "HIV 115-mer [2]": {"test_system": "HIV 115-mer", "assay": "Crosslinkable Oligonucleotide Probe Analysis (COP) after sterilization", "protocol": "Preparation of Samples: The HIV 115-mer system with primers SK-38/SK-39 was used for the experiment (see FIG. 36, “HIV Oligonucleotide System”). Two types of starting template were used: previously amplified 115-mer or genomic DNA, isolated from an individual known to be infected with HIV (MACS sample). For previously amplified 115-mer between 10^5 and 10^6 copies were used for starting template. For the genomic (MACS) sample, approximately 1 μg (3×10^5 copies) of genomic DNA were used. Two PCR samples were prepared for each type of template then amplification was carried out for either 20 or 30 cycles. One of the two PCR samples contained AMDMIP at 200 μg/ml while the other was AMDMIP free. Following amplification, the AMDMIP containing samples were divided and half were irradiated. Analysis (OH or COP) was then done on the three samples from each set (AMDMIP free, AMDMIP unirradiated, and AMDMIP irradiated) for each cycle number. The AMDMIP free samples served as control, the AMDMIP unirradiated sampes adressed the effect of non-covalently bound AMDMIP on detection, and AMDMIP irradiated samples addressed the effect of covalently bound AMDMIP on detection.\nCOP and OH assays were performed a follows. 10 μl of the PCR reaction mixture was added to 3.3 μl of “probe mix” [5′-labelled SK-19 (normal or monoadducted) at 10^−8 M containing EDTA and an appropriate salt mixtures], overlaid with 30-40 μl of light mineral oil, then heated to 95-100° C. for 5 minutes. For COP, the hybridization mixture as placed in the PTI device at 56° C. and irradiated for 15 minutes. Following this, loading dyes (containing urea or formamide) were added, the sample heated to 95-100° C. for 5 minutes, quick chilled on wet ice, then loaded on a denaturing PAGE gel followed by electrophoresis under denaturing conditions. For OH reactions, the hybridization mixture was incubated at 56° C. for 30 minutes, loading dyes added, and aliquots loaded directly into a native PAGE gel followed by electrophoresis under native conditions. 1. Samples 1-6 contain previously amplified 115-mer that was re-amplified either 20 (samples 1,3,5) or 30 (Samples 2,4,6) cycles then detected by COP. Samples 1 & 2 are controls (without AMDMIP); samples 3 and 4 are (with AMDMIP and with light) sterilized samples; samples 5 & 6 are (with AMDMIP but without light) controls. The bands corresponding to amplified 115-mer crosslinked to labelled 41-mer probe (SK-19 MA) are the upper bands in FIG. 46. Samples 11-16 are the same series except the MACS sample was used as template."}, "human placental DNA": {"test_system": "human placental DNA", "assay": "PCR in presence of AMDMIP and DMSO co-solvent", "settings": "AMDMIP 200 μg/ml", "protocol": "In this example, the effect of DMSO on PCR amplification in the presence of high concentrations of sterilizing compound (AMDMIP) was investigated. Samples were prepared for PCR which contained 1 μg of human placental DNA either with or without (unirradiated) AMDMIP (200 μg/ml). The samples were amplified 30 cycles under standard PCR conditions in the presence of 0%, 1%, 5% or 10% DMSO. The reaction mix contained α-^32P-dCTP. Following amplification, the samples were analyzed by PAGE (data not shown)."}, "[3]": {"test_system": "HIV 115-mer PCR product carryover", "assay": "Post-amplification sterilization, isopsoralen added after amplification (Example 54)", "settings": "for sterilization of carryover: AMDMIP 100 μg/ml, PTI 15 minutes, 10^6 copies", "text": "In this embodiment, the method of sterilization comprises: 1) providing PCR reagents, 2) providing template, 3) providing polymerase, 4) mixing PCR reagents, template, and polymerase to initiate PCR, 5) cycling to provide PCR product, 6) providing isopsoralen, 7) adding isopsoralen to PCR product, and 8) irradiating PCR product.\nFor the purposes of this determination, the steps of the following experiment include (see FIG. 40): a) preparing template, b) providing template, c) providing PCR reagents, d) providing polymerase, e) mixing PCR reagents, template, and polymerase to initiate PCR, f) cycling to provide PCR product, g) carrying over of PCR product into new tubes, h) providing isopsoralen, i) adding isopsoralen to the carryover, j) irradiating, k) addition of new PCR reagents, and 1) subsequent PCR.\nSteps a), b), c), d), e), and f). PCR product was provided as described earlier.\nStep g) Carrying over of PCR product. Aliquots of PCR product were added into new reaction tubes at 10^6 copies per tube.\nStep h) Providing Isopsoralen. AMDMIP was synthesized as described and diluted.\nStep i) Addition of Isopsoralen ANDDMIP (100 μg/ml, approximately 10^−4 M) was added reaction vessels containing carryover.\nStep i) Irradiation. Irradiation was performed on the PTI device to avoid photoproduct. Three of the new reaction tubes were irradiated while the others were left unirradiated as controls. Irradiation was for 15 minutes at RT as above.\nStep k) PCR Reagents and Tag Polymerase Were Added to Appropriate Concentrations. The final volume was increased two fold such that AMDMIP photoproducts were at 50 μg/ml.\nStep l) Subsequent PCR. Amplification was performed, in closed reaction vessels using primer pair SK-38/39 for 20, 25 or 30 cycles, using the temperature profile for cycling described above in the presence of α-^32P-dCTP."}}, "data": [{"molecule": "Cc1oc2ccc3c(C)cc(=O)oc3c2c1CN", "note": "[AMDMIP, 4′-Aminomethyl-4,5′-dimethylisopsoralen]", "values": [{"measurement": "concentration compatible with the PCR system", "setting": "HIV 115-mer [1]; HIV 115-mer system", "value": "up to 400 μg/ml"}, {"measurement": "Counts (CPM) of PCR product", "setting": "HIV 115-mer [1]; unirradiated AMDMIP 100 μg/ml", "value": 77200, "unit": "CPM"}, {"measurement": "Counts (CPM) of PCR product", "setting": "HIV 115-mer [1]; unirradiated AMDMIP 200 μg/ml", "value": 77500, "unit": "CPM"}, {"measurement": "Counts (CPM) of PCR product", "setting": "HIV 115-mer [1]; unirradiated AMDMIP 400 μg/ml", "value": 69400, "unit": "CPM"}, {"measurement": "COP hybrid band CPM", "setting": "HIV 115-mer [2]; sample 3: previously amplified 115-mer, 20 cycles, AMDMIP 200 μg/ml with light", "value": 1944, "unit": "CPM"}, {"measurement": "COP hybrid band CPM as % of AMDMIP-free control", "setting": "HIV 115-mer [2]; sample 3: previously amplified 115-mer, 20 cycles, AMDMIP with light", "value": 62, "unit": "%"}, {"measurement": "COP hybrid band CPM", "setting": "HIV 115-mer [2]; sample 4: previously amplified 115-mer, 30 cycles, AMDMIP 200 μg/ml with light", "value": 36452, "unit": "CPM"}, {"measurement": "COP hybrid band CPM as % of AMDMIP-free control", "setting": "HIV 115-mer [2]; sample 4: previously amplified 115-mer, 30 cycles, AMDMIP with light", "value": 83, "unit": "%"}, {"measurement": "COP hybrid band CPM", "setting": "HIV 115-mer [2]; sample 5: previously amplified 115-mer, 20 cycles, AMDMIP 200 μg/ml without light", "value": 4480, "unit": "CPM"}, {"measurement": "COP hybrid band CPM as % of AMDMIP-free control", "setting": "HIV 115-mer [2]; sample 5: previously amplified 115-mer, 20 cycles, AMDMIP without light", "value": 144, "unit": "%"}, {"measurement": "COP hybrid band CPM", "setting": "HIV 115-mer [2]; sample 6: previously amplified 115-mer, 30 cycles, AMDMIP 200 μg/ml without light", "value": 39596, "unit": "CPM"}, {"measurement": "COP hybrid band CPM as % of AMDMIP-free control", "setting": "HIV 115-mer [2]; sample 6: previously amplified 115-mer, 30 cycles, AMDMIP without light", "value": 90, "unit": "%"}, {"measurement": "COP hybrid band CPM", "setting": "HIV 115-mer [2]; sample 13: MACS genomic DNA, 20 cycles, AMDMIP 200 μg/ml with light", "value": 460, "unit": "CPM"}, {"measurement": "COP hybrid band CPM as % of AMDMIP-free control", "setting": "HIV 115-mer [2]; sample 13: MACS genomic DNA, 20 cycles, AMDMIP with light", "value": 52, "unit": "%"}, {"measurement": "COP hybrid band CPM", "setting": "HIV 115-mer [2]; sample 14: MACS genomic DNA, 30 cycles, AMDMIP 200 μg/ml with light", "value": 41777, "unit": "CPM"}, {"measurement": "COP hybrid band CPM as % of AMDMIP-free control", "setting": "HIV 115-mer [2]; sample 14: MACS genomic DNA, 30 cycles, AMDMIP with light", "value": 78, "unit": "%"}, {"measurement": "COP hybrid band CPM", "setting": "HIV 115-mer [2]; sample 15: MACS genomic DNA, 20 cycles, AMDMIP 200 μg/ml without light", "value": 464, "unit": "CPM"}, {"measurement": "COP hybrid band CPM as % of AMDMIP-free control", "setting": "HIV 115-mer [2]; sample 15: MACS genomic DNA, 20 cycles, AMDMIP without light", "value": 53, "unit": "%"}, {"measurement": "COP hybrid band CPM", "setting": "HIV 115-mer [2]; sample 16: MACS genomic DNA, 30 cycles, AMDMIP 200 μg/ml without light", "value": 35176, "unit": "CPM"}, {"measurement": "COP hybrid band CPM as % of AMDMIP-free control", "setting": "HIV 115-mer [2]; sample 16: MACS genomic DNA, 30 cycles, AMDMIP without light", "value": 66, "unit": "%"}, {"measurement": "product band CPM", "setting": "human placental DNA; 0% DMSO", "value": 2500, "unit": "CPM"}, {"measurement": "product band CPM", "setting": "human placental DNA; 1% DMSO", "value": 2800, "unit": "CPM"}, {"measurement": "product band CPM", "setting": "human placental DNA; 5% DMSO", "value": "86,000 CPM"}, {"measurement": "product band CPM", "setting": "human placental DNA; 10% DMSO", "value": "102,000 CPM"}, {"measurement": "amplification in presence of unirradiated AMDMIP", "setting": "human placental DNA; no DMSO, 30 cycles", "value": "virtually no detectable amplification product"}, {"measurement": "reamplification of carryover with AMDMIP, not light-treated", "setting": "[3]; 20, 25, 30 cycles", "value": "show amplification"}, {"measurement": "sterilization of carryover", "setting": "[3]; 20 cycles", "value": "sterilization appears to be complete"}, {"measurement": "sterilization of carryover", "setting": "[3]; 25 cycles", "value": "reduced relative to controls"}, {"measurement": "sterilization of carryover", "setting": "[3]; 30 cycles", "value": "no significant sterilization is observed"}]}]}
